In PubChem BioAssay AID1902 (Broad Institute, 2009):
The source made the active and inactive calls.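 The calls were made as follows: active = EC50 no more than a set limit of log units above the highest dose; inactive = the rest.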

Target: S. pyogenes SKKanGAS, kanamycin survival, BacTiterGlo, 6 h
Experiment: SKKanGAS survival reduction under kanamycin, dose response, streptokinase promoter inhibitor project, SKKanGAS strain, luminescence, dose confirmation (AID 1902);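 also: lower survival reflects blocked streptokinase promoter driving kanamycin resistance gene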

| SMILES | EC50 |
| --- | --- |
| Cc1cccc(NC(=O)c2nc[nH]c2C(=O)N[C@@H](Cc2ccccc2)C(=O)OC(C)(C)C)c1 | 1.44 µM |
| CC[C@H]1OC(=O)[C@H](C)[C@@H](O[C@H]2C[C@@](C)(OC)[C@@H](O)[C@H](C)O2)[C@H](C)[C@@H](O[C@@H]2O[C@H](C)C[C@H](N(C)C)[C@H]2O)[C@](C)(O)C[C@@H](C)[C@@H]2N[C@@H](COCCOC)O[C@H]([C@H]2C)[C@]1(C)O | < 0.06 µM |
| Cc1ccc(/C=N/NC(=O)C2=NNC(c3ccccc3)(c3ccccc3)C2)c(O)c1 | 4.01 µM |
| CCOc1ccc2nc(N3C(=O)/C(=C/c4ccc(Cl)cc4)NC3=S)sc2c1 | 1.3 µM |
| COCCOC(=O)c1c(C)nc(SCC(=O)Nc2ccc(C)cc2)c(C#N)c1-c1ccco1 | 6.68 µM |
| Cc1ccc(C(=O)C(c2ccccc2)N2Cc3ccccc3C2=N)cc1 (configuration not stated) | 5.75 µM |
| CCCCCC/C(=N/O)c1ccccn1 | 15.4 µM |
| CC(C)(C)C(=O)NC(=S)NNC(=O)c1ccc(Cl)cc1Cl | 0.402 µM |
| CC(=O)NNC(=S)NC(=O)C(c1ccccc1)c1ccccc1 | 0.853 µM |
| CC1CCCN(S(=O)(=O)c2ccc(C(=O)Nc3nnc(C4CC4)o3)cc2)C1 (configuration not stated) | 3.3 µM |
| CCc1ccc2nc(N3C(=O)C(O)=C(C(=O)c4ccco4)C3c3cccs3)sc2c1 (configuration not stated) | 1.88 µM |
| CSc1cccc(-c2nnc(NC(=O)c3cccc(N4C(=O)CCC4=O)c3)o2)c1 | 2.04 µM |
| COc1ccc2c(C)nc(Nc3nc(-c4ccccc4)cc(=O)[nH]3)nc2c1 | 2.75 µM |
| O=C(Nc1nnc(-c2ccc(Cl)cc2)o1)c1nc2ccccc2s1 | 0.178 µM |
| CCC(C(=O)NCC1CCCO1)n1nc(C)c2sc3ccccc3c2c1=O (configuration not stated) | > 15 µM (inactive) |
| O=C(CCn1cnc(-c2ccccc2)c1-c1ccccc1)N/N=C/c1ccccc1O | 0.522 µM |
| CCOc1ccc(/C=N/Nc2cc(N3CCOCC3)nc(C)n2)c(O)c1 | 8.48 µM |
| Cc1ccc(C)c(CSC2=NCCN2S(=O)(=O)c2ccccc2)c1 | 15.7 µM |
| COc1cc(C(=O)NS(=O)(=O)c2ccccc2C)ccc1Cc1cn(C)c2ccc(NC(=O)OC3CCCC3)cc12 | 2.05 µM |
| COc1cccc(CC(=O)OCC(=O)Nc2nnc(-c3ccccc3)o2)c1 | 4.58 µM |
| Cc1cc(C)cc(NC(=S)NCCSc2ccc(Cl)cc2)c1 | 13.5 µM |
| Nc1nc(N)c(C=Nc2ccc(Br)cc2)c(Nc2ccc(Br)cc2)n1 | 1.69 µM |
| Cc1cc(C)c(-c2cc(NC(=O)COC(=O)c3ccc(CO)cc3)n(-c3ccccc3)n2)cc1C | 8.32 µM |
| CCCCNC(=O)c1cn(CC(C)C)c(=O)c2c1c1ccccc1n2C | 9.02 µM |
| O=C1C(Cl)=C(Nc2ccc3cn[nH]c3c2)C(=O)c2ccccc21 | 2.21 µM |
| O=S(=O)(Nc1cccc(-c2ccc(N3CCOCC3)nn2)c1)c1ccc(Cl)c(Cl)c1 | 9.66 µM |

| SMILES | EC50 |
| --- | --- |
| O=c1c(O)c(-c2cccs2)oc2ccc(Cl)cc12 | 2.06 µM |
| COc1ccc(C2C(C(=O)c3ccccc3)=C(C)Nc3nc4ccccc4n32)c(OC)c1 (configuration not stated) | 6.1 µM |
| CCCC(=O)NCCc1ccc(F)cc1 | > 15 µM (inactive) |
| Cc1ccc(C23CC4CC(CC(C(=O)N5CCN(C)CC5)(C4)C2)C3)cc1 | > 15 µM (inactive) |
| COc1cc(OC)cc(C(=O)Nc2nc3ccccc3[nH]2)c1 | 12.8 µM |
| CCc1nc2c3cnn(-c4cc(Cl)ccc4C)c3ncn2n1 | 12.8 µM |
| CCOC(=O)c1ccc(NC(=O)c2nc[nH]c2C(=O)NCCCCCNC(=O)OC(C)(C)C)cc1 | 2.83 µM |
| C=C(C)COc1ccc(-c2n[nH]c(C)c2-c2ccccc2)c(O)c1 | 2.4 µM |
| CCOC(=O)C1=C(C)n2c(s/c(=C/c3cccc([N+](=O)[O-])c3)c2=O)=NC1c1ccc(O)c(OC)c1 (configuration not stated) | 10.5 µM |
| CC(=O)[C@@]1(O)C(C)CC2C3C=C(C)C4=Cc5c(cnn5-c5ccccc5)C[C@]4(C)C3C(O)C[C@@]21C (some centres not stated) | 3.56 µM |
| Cc1cc(C)c(OCC(=O)Nc2nc(-c3ccccn3)cs2)c(C)c1 | 1.4 µM |
| COc1ccc(OCCn2c(NC(=O)c3ccco3)nc3ccccc32)cc1 | 3.38 µM |
| COc1ccc(/C=C2\SC(=N)N(c3nccs3)C2=O)cc1OC | 0.838 µM |
| CC1(c2ccccc2)CC(C)(C)N2C(=O)/C(=C3\SC(=S)NC3=O)c3cccc1c32 (configuration not stated) | 0.43 µM |
| Cc1cc(N/N=C\c2ccc(Br)cc2)nc(-n2nc(C)cc2C)n1 | 0.414 µM |
| CC(C)COc1ccc(-c2nn(-c3ccccc3)cc2/C=C2/SC(=S)N(CC(=O)O)C2=O)cc1 | 2.18 µM |
| CCN(CC)c1ccc(/C=N/NC(=O)CCC(=O)NCc2ccccc2)c(O)c1 | 3.35 µM |
| COc1ccc(/C=C/C(=O)NC(=S)NNC(=O)[C@H]2C[C@@H]2c2ccccc2)cc1OC | 0.362 µM |
| N=c1ccn2c(n1)O[C@H]1[C@H](O)[C@@H](CO)O[C@H]12 | 4.89 µM |
| COC(=O)c1c(C)[nH]c(C(=O)OCC(=O)N(CC(C)C)c2c(N)n(Cc3ccccc3)c(=O)[nH]c2=O)c1C | 9.34 µM |
| O=C(/C=C/c1ccccc1)NC(NC(=S)Nc1ccc(Cl)cc1)C(Cl)(Cl)Cl (configuration not stated) | 4.16 µM |
| CCOC(=O)CC(NC(=O)CCS(=O)(=O)c1ccc2c(c1)n(C)c(=O)c(=O)n2C)c1ccc(C)cc1 (configuration not stated) | > 15 µM (inactive) |
| COc1ccc(Cn2c(-c3ccco3)nc3oc4cc(OC)ccc4c(=O)c3c2=O)cc1 | 14.7 µM |
| CC(Oc1ccc2ccccc2c1)C(=O)NNC(=S)NC(=O)c1ccco1 (configuration not stated) | 0.149 µM |
| c1ccc(-c2nc(C3CCCCC3)c3ccccc3n2)cc1 | 3.87 µM |
| COc1ccc(Cn2c(C3CCCCC3)nc3c(c(=O)c4ccccc4n3C)c2=O)cc1 | 3.2 µM |

| SMILES | EC50 |
| --- | --- |
| O=C(N/N=C/c1ccc([N+](=O)[O-])o1)c1cc(-c2cccc(Br)c2)nc2ccccc12 | 0.422 µM |
| Cc1ccccc1-c1nc2c3ccccc3nc(=S)n2[nH]1 | 4.01 µM |
| O=C(CNc1ccccc1)N/N=C/c1c(O)ccc2ccccc12 | 0.74 µM |
| CC(C)N1CCc2c(sc(NC(=O)CCS(=O)(=O)c3ccccc3)c2C#N)C1 | > 15 µM (inactive) |
| Cc1ccc2ccc(C(Nc3cccc(C(F)(F)F)c3)c3cccnc3)c(O)c2n1 (configuration not stated) | 1.12 µM |
| COc1ccc(NC(=O)C(=O)NNC(=O)C(C)Oc2ccc(Cl)cc2Cl)cc1 (configuration not stated) | 3.31 µM |
| Cc1cc(NC(=O)c2ccc(C)s2)n(-c2nc3ccccc3[nH]2)n1 | 3.44 µM |
| Cc1conc1NC(c1cccs1)c1ccc2cccnc2c1O (configuration not stated) | 1.23 µM |
| CC1CCN(c2ccccc2NC(=O)c2cc3ccccc3o2)CC1 | 11.7 µM |
| Cc1ccc(C(=O)N2CCCC(CCC(=O)NCc3ccccc3F)C2)cn1 (configuration not stated) | > 15 µM (inactive) |
| CC(C)(O)c1ccccc1CC[C@@H](SCC1(CC(=O)O)CC1)c1cccc(/C=C/c2ccc3ccc(Cl)cc3n2)c1 | 1.44 µM |
| Cc1[nH]n(-c2ccccc2)c(=O)c1N=Nc1ccccc1O | 0.582 µM |
| Cc1cccc(/C=C2\Sc3ccc(C(=O)N4CCC(C)CC4)cc3N(C)C2=O)c1 | 2.69 µM |
| CC1=NN(C(N)=S)C(=O)C1N=Nc1c(Br)cc(Br)cc1Br (configuration not stated) | 2.78 µM |
| N#C/C(=N\Nc1ccc(Cl)cc1)C(N)=S | > 15 µM (inactive) |
| Cc1cc2c(cc1C)CSC(c1c(O)ccc3ccccc13)SC2 | 2.08 µM |
| CCC(CC)C1=NN2C(=N)/C(=C\c3cc(C)n(-c4cccc(C)c4)c3C)C(=O)N=C2S1 | 2.91 µM |
| CCOC(=O)c1sc2nccc(N(C)C)c2c1N=CNOCc1c(F)cccc1Cl | 5.16 µM |
| Cc1cc(C)nc(SCC(=O)NC2=NN=C(c3ccc(Br)cc3)CS2)n1 | 3.07 µM |
| CCc1ccc(NC2=NCC(c3ccccc3)S2)cc1 (configuration not stated) | 6.4 µM |
| Cc1ccnc(NS(=O)(=O)c2ccc(NC(=O)c3cc(-c4ccc(Br)cc4)nc4ccccc34)cc2)n1 | 3.34 µM |
| CN(C)CCNC=C(C(=O)Nc1ccc(Cl)cc1Cl)C(=O)Nc1ccc(Cl)cc1Cl | 3.38 µM |
| COc1ccc2cc(C(=O)/C=C/c3cc(OC)c(O)c(OC)c3)ccc2c1 | 6.68 µM |
| Cc1ccc(S(=O)(=O)/N=C2\C=C(Nc3cccc(C(=O)O)c3)C(=O)c3ccccc32)cc1 | 2.43 µM |
| CCc1ccccc1NC(=O)NC(C)c1ccc2c(c1)OCO2 (configuration not stated) | > 15 µM (inactive) |
| Cc1ccc(NC(=S)N=Nc2c(O)[nH]c3ccccc23)cc1 | 0.631 µM |

| SMILES | EC50 |
| --- | --- |
| CC(=O)Oc1c(I)cc(I)cc1C(=O)Nc1ccc(Cl)cc1 | 0.394 µM |
| C=C(C)COc1ccc(-c2nc(N)ncc2-c2ccc(Cl)cc2)c(O)c1 | 5.69 µM |
| CC(=O)O[C@H]1CC[C@]2(C)[C@H]3CC=C4[C@@H]5[C@@H](C)[C@H](C)CC[C@]5(C(=O)O)CC[C@@]4(C)[C@]3(C)CC[C@H]2C1(C)C | 2.83 µM |
| CC(C)c1ccc(NC(=O)NC(C)c2ccc3c(c2)OCO3)cc1 (configuration not stated) | > 15 µM (inactive) |
| CC[C@@H]1CC=C[C@H]2[C@H]1C(=O)N(Cc1ccccc1)[C@H]2c1ccc(OC)c(Cl)c1 | 4.15 µM |
| CCn1c(C)nc2cc(C(=O)NNC(=S)NC(=O)c3ccc(OC)cc3)ccc21 | 5.87 µM |
| Cc1ccc(C(=O)NC(=S)NNC(=O)c2ccccc2O)cc1 | 0.459 µM |
| CC1=C(C(=O)O)N2C(=O)C(NC(=O)Cc3ccccc3)C2SC1 (configuration not stated) | 1.03 µM |
| Cc1cccc2sc(NNC(=O)c3cc(=O)c4ccccc4o3)nc12 | 0.42 µM |
| CN1CCN(C(c2ccc(Cl)cc2)c2cc(Cl)c3cccnc3c2O)CC1 (configuration not stated) | 1.46 µM |
| Cc1ccc(C2Oc3ccccc3C3=C2C(c2cccs2)n2ncnc2N3)cc1 (configuration not stated) | 3.76 µM |
| O=C(Nc1nnc(C2CC2)o1)c1ccc(S(=O)(=O)N2CCCc3ccccc32)cc1 | 1.34 µM |
| O=C(CSc1nc(N2CCOCC2)nc(N2CCOCC2)n1)Nc1cccc(C(F)(F)F)c1 | > 15 µM (inactive) |
| CCSc1cc(N2CCCC2)nc(-c2ccccc2)n1 | > 15 µM (inactive) |
| CN1CCN(C(c2ccc(C(F)(F)F)cc2)c2ccc3cccnc3c2O)CC1 (configuration not stated) | 3.02 µM |
| C=C[C@]1(C)C[C@@H](OC(=O)CSCCN(CC)CC)[C@]2(C)C(C)CC[C@]3(CCC(=O)[C@H]32)[C@@H](C)[C@@H]1O (some centres not stated) | < 0.06 µM |
| FC(F)(F)c1cccc(-c2nc3nc(Cl)c(Cl)nc3[nH]2)c1 | 6.58 µM |
| O=C(c1nc2ccc(Cl)cn2c1CN1CCC(CO)CC1)N1CCc2ccccc2C1 | > 15 µM (inactive) |
| COc1ccc(Cn2c(SCc3cc(C)ccc3C)nc3cc(OC)c(OC)cc3c2=N)cc1 | 2.73 µM |
| C/C(=N\NC(=O)c1cccc(Br)c1)c1ccccn1 | 0.74 µM |
| Cc1cc(C)c(C(=O)Nc2ccc(Br)c(C(F)(F)F)c2)c(C)c1 | 2.79 µM |
| Cc1ccc(CNC(=S)NC2CCC(C(C)(C)C)CC2)cc1 (configuration not stated) | 3.4 µM |
| Nc1nc(CN2CCC(Cc3ccccc3)CC2)nc(Nc2ccccc2)n1 | 1.95 µM |
| O=C(Nc1nnc(SCc2c(Cl)cccc2Cl)s1)C1CC(=O)N(c2ccc3c(c2)OCCO3)C1 (configuration not stated) | 9.74 µM |
